Legend:
[1] = test system: NTG-induced skin hypersensitivity in mice; experiment: Mouse model of chronic migraine (repetitive NTG): hindpaw and facial von Frey thresholds, cheek acetone test; assay type: in vivo
Protocol: Mouse model of chronic migraine and drug treatments: After measuring baseline nociceptive responses, mice received repetitive intraperitoneal (i.p.) injections of NTG (10 mg/kg in saline with 1% propylene glycol) or vehicle (saline with 1% propylene glycol in saline, 10 mL/kg) every 2 days for 4 or more times as described previously (Pradhan A A, et al. PAIN 2014; 155:269-74). Nocifensive behaviors were measured 2 days after each injection (before the next treatment). NTG (SDM27; Copperhead Chemical, Tamaqua, PA) was freshly diluted from the stock (10% in propylene glycol, aliquoted in airtight glass vials and stored at 4° C.) with saline for every injection. Recombinant mouse IL2 (carrier-free; Biolegend, San Diego, CA) was freshly diluted from the stock (1 mg/mL aliquots at […]) every day. Each mouse received daily i.p. injection of […] IL2 in […] saline. The control mice received daily i.p. injections of […] saline. In Treg depletion experiment, mice received 1 i.p. injection of antibodies against CD25 ([…], BP0012; BioXcell, West Lebanon, NH11) or control IgG (BP0088; BioXcell). The antibody binds to CD25 on Treg cell membrane and depletes Treg cells through Fcg receptor III-mediated antibody-dependent cellular cytotoxicity and antibody-dependent cellular phagocytosis (Setiady Y Y, et al, Eur J Immunol 2010; 40:780-6). Note that on the days that the mouse behaviors were tested, NTG, IL2 and/or antibodies were always injected after completing the behavioral tests.
(§1) Responses to mechanical stimuli on the hindpaw. Mice were habituated in individual clear plexiglass boxes (11×11×15 cm) for 1 to 2 hours. A series of calibrated von Frey filaments was used to apply mechanical stimuli to the plantar surface of the hindpaws. The up-down paradigm was used to determine the 50% withdrawal threshold. The thresholds for both hindpaws were averaged to yield a single value for each mouse.
Cheek acetone test. The acute nocifensive response to acetone-evoked evaporative cooling on mouse cheek was measured as previously described (Constandil L, et al. J Pain 2012; 13:579-89). The day before testing, both cheeks were shaved (6.5×12 mm) under brief anesthesia (2% isoflurane in 100% oxygen). On the test day, mice were habituated in individual plexiglass cylinders (11-cm diameter, 15-cm height) situated in front of 3-way mirrors for 1 to 2 hours. Acetone ([…]) was applied to the shaved cheeks and immediately returned mice to the cylinders. Time spent wiping the treated area was recorded by a video camera and quantified offline. For individual mice, acetone was applied alternatingly to both cheeks at 10-minute intervals, and the duration of behavior was averaged from 4 applications.
Withdrawal responses to facial mechanical stimuli. The hair on mouse forehead (above and between 2 eyes) was shaved the day before testing. On the test day, the experimenter gently held the mouse on the palm with minimal restraint and applied the calibrated von Frey filament perpendicularly to the shaved skin, causing the filament to bend for 5 seconds. A positive response was determined by the following criteria as previously described: mouse vigorously stroked its face with the forepaw, head withdrawal from the stimulus, or head shaking (Elliott M B et al., Headache 2012; 52:966-84). The up-down paradigm was used to determine the 50% withdrawal threshold. […]

[2] = test system: Treg cells and CD3+ T cells in dura, TG and DRG; experiment: Immunohistochemistry of CD3+ T cells and EGFP+ Treg cells in dura, TG, DRG and cervical/medullary dorsal horn; assay type: in vivo, mouse
Protocol: Tissue preparation, immunohistochemistry, and image analysis. Mice were euthanized with i.p. injection of barbiturate (200 mg/kg) and were transcardially perfused with warm 0.1 M phosphate buffered saline (pH 7.2) followed by cold 4% formaldehyde in 0.1 M phosphate buffer (pH 7.2) for fixation. Trigeminal ganglia, lumbar L4 DRG, and the tissues containing the cervical/medullary dorsal horn (from obex to C3 cervical spinal cord) were collected and sectioned at […] in the transverse plane, collected on Superfrost Plus glass slides in sequence and stored at […]
The dura was carefully dissected from the skull using forceps and stained as whole mount. T cells were identified by the rat anti-CD3 antibody (clone 17A2, 1:200; eBioscience, San Diego, CA), and Treg cells were identified with the chicken anti-EGFP (1:1000; AVES Lab, Tigard, OR) antibody in tissues from DEREG mice. […] To quantify CD31 T cells and Treg cells on the dura, we took random, nonoverlapping images (10 per mouse) in areas adjacent to the middle meningeal artery (MMA). To quantify T cells and Treg cells in TG, DRG, and cervical/medullary dorsal horn, all cells on individual sections were counted, and the number was multiplied by 4 to obtain the total number of cells per ganglion in each mouse. […] Representative images were adjusted for contrast and brightness using the same parameter within individual experiments. No other manipulations were made to the images. Image analysis was performed with experimenters blinded to the experimental groups.

[3] = test system: nerve injury-induced punctate and dynamic allodynia; settings: cited from earlier work
[4] = test system: NTG/NO donor- or mTBI-induced cutaneous allodynia in rodents; settings: cited from earlier work; for persistent cephalic mechanical hypersensitivity induced by repeated isosorbide dinitrate: Dallel R, et al., Cephalalgia 2018
[5] = test system: sumatriptan-induced cutaneous hypersensitivity in mice; experiment: Mouse model of medication overuse headache (repeated sumatriptan); assay type: in vivo; settings: daily sumatriptan 0.6 mg/kg i.p.; male and female C57BL/6J
Protocol: Mouse model of medication overuse headache. After measuring baseline nociceptive responses, mice received daily i.p. injections of sumatriptan succinate (0.6 mg/kg; Fresenius Kabi, Lake Zurich, IL44). Daily ld-IL2 or saline were administered after mice received 2 sumatriptan injections. Facial and hindpaw mechanical thresholds were measured every 2 days. Note that on the days that the mouse behaviors were tested, sumatriptan and/or IL2 were always injected after completing the behavioral tests.
as §1
Withdrawal responses to facial mechanical stimuli. The hair on mouse forehead (above and between 2 eyes) was shaved the day before testing. On the test day, the experimenter gently held the mouse on the palm with minimal restraint and applied the calibrated von Frey filament perpendicularly to the shaved skin, causing the filament to bend for 5 seconds. A positive response was determined by the following criteria as previously described: mouse vigorously stroked its face with the forepaw, head withdrawal from the stimulus, or head shaking (Elliott M B et al., Headache 2012; 52:966-84). The up-down paradigm was used to determine the 50% withdrawal threshold.

## O=[N+]([O-])OCC(CO[N+](=O)[O-])O[N+](=O)[O-] [NTG, nitroglycerin, reference compound]
[1]; 2 days after the first NTG injection, female Swiss Webster
  mechanical threshold at the periorbital region: substantially reduced
[1]; NTG 10 mg/kg i.p. every 2 days for 5 times, male and female C57BL/6J
  50% withdrawal thresholds to von Frey filaments on the hindpaws: induced a progressive and sustained mechanical hypersensitivity
[1]; NTG 10 mg/kg i.p., naive C57BL/6J, day 1
  facial mechanical threshold 3 hours after systemic NTG: significantly reduced
[1]; male C57BL/6J
  time facial mechanical hypersensitivity was sustained by repeated NTG injections: at least 4 weeks
[1]; repeated NTG, female C57BL/6J
  duration of acetone-induced cheek wiping: persistent increase
[1]; repetitive NTG, female Swiss Webster
  duration of acetone-induced cheek wiping: gradual increase
[2]; repeated NTG
  increase in total CD3+ cells in TG: 2 fold
[2]; repeated NTG administration
  proportion of Treg cells among total T cells in TG: significantly reduced
[2]; repeated NTG, C57BL/6J
  density of CD3+ T cells in the dura surrounding the MMA or in L4 DRG: not altered
[2]; repeated NTG, female C57BL/6J, n=6
  CD3+ cells per TG: 4135±562 cells per TG
[2]; repeated injections of NTG
  reduction of the ratio of Treg cells among CD3+ T cells in mouse TG: 50%
[2]; repetitive NTG injections, female DEREG mice
  total number of EGFP+ Treg cells in TG and DRG: neither was significantly altered

## CN1CC[C@]23c4c5ccc(O)c4O[C@H]2[C@@H](O)C=C[C@H]3[C@H]1C5 [morphine]
[3]; <2 weeks post-injury
  nerve injury-induced punctate allodynia, early stage: attenuates
[3]; all stages
  nerve injury-induced dynamic allodynia: does not respond
[3]; late stage
  nerve injury-induced punctate allodynia, late stage: not late stage

## NCCCC[C@H](NC(=O)[C@@H](Cc1cc(Br)c(O)c(Br)c1)NC(=O)N1CCC(N2Cc3ccccc3NC2=O)CC1)C(=O)N1CCN(c2ccncc2)CC1 [olcegepant]
[4]
  persistent cephalic mechanical hypersensitivity induced by repeated isosorbide dinitrate: neither sumatriptan nor CGRP receptor antagonist olcegepant prevents

## CC(C)NCC(O)COc1cccc2ccccc12 (stereo not drawn) [propranolol]
[4]; previous studies
  persistent facial mechanical hypersensitivity from repeated enhancing of NO signaling: can be blocked

## CNS(=O)(=O)Cc1ccc2[nH]cc(CCN(C)C)c2c1 [sumatriptan, sumatriptan succinate]
[5]
  facial and hindpaw mechanical sensitivity: persistent facial and hindpaw mechanical hypersensitivity
[4]
  persistent cephalic mechanical hypersensitivity induced by repeated isosorbide dinitrate: neither sumatriptan nor CGRP receptor antagonist olcegepant prevents
[4]; rodents
  NTG-induced acute cutaneous allodynia and central sensitization: can be blocked

## CC1(C)O[C@@H]2[C@@H](CO[C@@]3(COS(N)(=O)=O)OC(C)(C)O[C@@H]23)O1 [topiramate]
[4]; daily treatment, mice
  NTG-enhanced behavioral responses to acetone-induced cooling of facial skin: can be blocked

Source: patent US12702697B2, “Compositions and methods for treatment of headache disorders and neuropathic pain” (Washington University, priority 2019, dated 2026)
